According to publication PMC3706879, “The neurotrophic compound J147 reverses cognitive impairment in aged Alzheimer's disease mice” (Alzheimer's Research & Therapy, 2013):
Where “and” joins values, the source holds several entries; their conditions need not be identical. Equal entries are not always repeated.

Legend:
[1] = tested on: huAPP/PS1 mice; assay: two-day water maze in aged huAPP/PS1 mice; assay type: in vivo; conditions: 200 ppm in food for three months, vs AD control
Procedure: The APPswe/PS1ΔE9 transgenic mice have been previously characterized. The line 85 mice carry two transgenes, the mouse/human chimeric APP/Swe, linked to Swedish FAD and human PS1ΔE9. At 20 months of age both male and female transgenic mice were fed a high fat diet (Harlan Tekland, Madison, WI, USA) with and without J147 (200 ppm, 10 mg/kg/day). Treatment continued for three months and was followed by behavior testing and sacrifice of mice for tissue harvesting. […] (Data not shown).
Spatial memory was determined using the two-day water maze in 23-month-old huAPPswe/PS1 transgenic mice fed J147 at 200 ppm in food for the previous three months. The protocol was adapted from a publication by Gulinello and colleagues. Water temperature remained at 27°C throughout the experiment. The goal platform was positioned 45 cm from the outside wall in the north-west quadrant of the maze for all groups and all trials. Day 1 of the two-day water maze procedure involved training the mice to find the platform using cues located around the pool within a 180 s time frame. […] The time it took each mouse to find the hidden platform was measured as escape latency. […] All trials were recorded using the EthoVision Software and statistics were computed using GraphPad Instat software (GraphPad Software, San Diego, CA, USA).

[2] = tested on: HT22 cells; conditions: 10 μM J147, one hour
Procedure: HT22 cells were plated in DMEM plus 10% FCS. The next day, the cells were treated with 10 μM J147 for 1 hr before RNA isolation.
RNA was isolated with the use of RNeasy Mini kit (Qiagen, #74104; Valencia, CA, USA) according to the manufacturer's instructions. Total RNA was quantified using the ND-1000 Nanodrop and assessed for quality using the ratios: A260/280 (range: 1.9 to 2.1) and A260/230 (range: 2.0 to 2.2, if <2.0, contamination), in addition to the Bioanalyzer (Agilent Technologies, Cedar Creek, TX, USA) if further quality assessment was required.
After RNA isolation for each sample, double stranded cDNA was synthesized from 500 ng total RNA and biotin-labeled using the GeneChip 3' IVT Express Kit (Affymetrix, Santa Clara, CA, USA, #901228-A) per the manufacturer's instructions and protocol. RNA was purified, quantified, fragmented randomly to an average size of 50 to 200 bases and hybridized to GeneChip® Mouse Genome 430 2.0 Arrays (Affymetrix,) consisting of over 45,000 probe sets representing more than 34,000 named mouse genes. The hybridization and processing of the GeneChips were conducted by Salk Institute's Functional Genomics Core Facility using the following systems from Affymetrix (Santa Clara, CA, USA): GeneChip® Hybridization Oven 640, GeneChip® Fluidics Station 450 to the wash and stain operation of Affymetrix GeneChip® arrays, and the GeneChip® Scanner 3000 7G.
Affymetrix Expression Console Software (version 1.0) was used to perform quality assessment of the microarray scan/experiments. Array data were normalized via scaling to adjust the average intensity of each array to be similar. GeneChips were analyzed by the GeneChip Operating Software (Affymetrix) with the default settings except that the target signal was set to 200 for GeneChip quality control. Raw data were analyzed through the gcRMA-algorithm using the Affymetrix package in R software for statistical computing and graphics. The median microarray intensity for all microarrays was normalized to 100, and probe sets with median intensities >100 were scored. Fold changes were calculated in Microsoft Excel Microsoft, Redmond, Washington, USA). Genes of interest and genes with the highest fold-changes were validated using Real-Time Quantitative PCR. The data discussed in this publication have been deposited in NCBI's Gene Expression Omnibus and are accessible through GEO Series accession number GSE45534 [26].

SMILES: COc1cccc(/C=N/N(C(=O)C(F)(F)F)c2ccc(C)cc2C)c1 [J147, (E)-N-(2,4-dimethylphenyl)-2,2,2-trifluoro-N'-(3methoxybenzyli-dene) acetohydrazide]
- spatial navigational memory (escape latency, hidden platform Day 2) [1]: significantly improved the spatial navigational memory
- Fold change: J147 (1 hr) vs Control, Egr1 mRNA [2]: 2.5 fold
- Fold change: J147 (1 hr) vs Control, Egr3 mRNA [2]: 8 fold and 8.0 fold
- Fold change: J147 (1 hr) vs Control, Ngf mRNA [2]: 2.8 fold
- Fold change: J147 (1 hr) vs Control, No title (chr8:13161324 to 13161817) [2]: 2.6 fold
- Fold change: J147 (1 hr) vs Control, Spred2 mRNA [2]: 2.7 fold
